In patent US9381246B2, “Cancer therapy” (TriAct Therapeutics, Inc., priority 2013, dated 2016):
Entries after “also recorded” stand apart in the source; their conditions may differ.

Key:
IGF1R [1] = target: T1, IGF1R (Homo sapiens, UniProt P08069); experiment: ATP binding competition assay
Procedure: Next, competition with ATP was determined directly by employing an assay previously validated to quantify the Km for small molecule kinase inhibitors compete for ATP binding to various kinases (Goldstein et al. 2008).
Target sequence in this assay (P08069 999-1274 limits assumed): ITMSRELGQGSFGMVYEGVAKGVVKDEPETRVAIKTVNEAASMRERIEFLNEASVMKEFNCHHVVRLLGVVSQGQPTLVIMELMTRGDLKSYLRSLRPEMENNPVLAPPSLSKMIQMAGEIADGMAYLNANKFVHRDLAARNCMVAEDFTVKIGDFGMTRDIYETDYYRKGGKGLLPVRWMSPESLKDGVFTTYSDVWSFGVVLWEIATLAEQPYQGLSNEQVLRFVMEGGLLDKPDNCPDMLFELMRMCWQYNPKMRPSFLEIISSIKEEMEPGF

IGF1R [2] = target: T1, IGF1R; experiment: IGF1R kinase inhibition (FIG. 7); format: biochemical; conditions: data from 3 sources
Target sequence in this assay (P08069 31-1367): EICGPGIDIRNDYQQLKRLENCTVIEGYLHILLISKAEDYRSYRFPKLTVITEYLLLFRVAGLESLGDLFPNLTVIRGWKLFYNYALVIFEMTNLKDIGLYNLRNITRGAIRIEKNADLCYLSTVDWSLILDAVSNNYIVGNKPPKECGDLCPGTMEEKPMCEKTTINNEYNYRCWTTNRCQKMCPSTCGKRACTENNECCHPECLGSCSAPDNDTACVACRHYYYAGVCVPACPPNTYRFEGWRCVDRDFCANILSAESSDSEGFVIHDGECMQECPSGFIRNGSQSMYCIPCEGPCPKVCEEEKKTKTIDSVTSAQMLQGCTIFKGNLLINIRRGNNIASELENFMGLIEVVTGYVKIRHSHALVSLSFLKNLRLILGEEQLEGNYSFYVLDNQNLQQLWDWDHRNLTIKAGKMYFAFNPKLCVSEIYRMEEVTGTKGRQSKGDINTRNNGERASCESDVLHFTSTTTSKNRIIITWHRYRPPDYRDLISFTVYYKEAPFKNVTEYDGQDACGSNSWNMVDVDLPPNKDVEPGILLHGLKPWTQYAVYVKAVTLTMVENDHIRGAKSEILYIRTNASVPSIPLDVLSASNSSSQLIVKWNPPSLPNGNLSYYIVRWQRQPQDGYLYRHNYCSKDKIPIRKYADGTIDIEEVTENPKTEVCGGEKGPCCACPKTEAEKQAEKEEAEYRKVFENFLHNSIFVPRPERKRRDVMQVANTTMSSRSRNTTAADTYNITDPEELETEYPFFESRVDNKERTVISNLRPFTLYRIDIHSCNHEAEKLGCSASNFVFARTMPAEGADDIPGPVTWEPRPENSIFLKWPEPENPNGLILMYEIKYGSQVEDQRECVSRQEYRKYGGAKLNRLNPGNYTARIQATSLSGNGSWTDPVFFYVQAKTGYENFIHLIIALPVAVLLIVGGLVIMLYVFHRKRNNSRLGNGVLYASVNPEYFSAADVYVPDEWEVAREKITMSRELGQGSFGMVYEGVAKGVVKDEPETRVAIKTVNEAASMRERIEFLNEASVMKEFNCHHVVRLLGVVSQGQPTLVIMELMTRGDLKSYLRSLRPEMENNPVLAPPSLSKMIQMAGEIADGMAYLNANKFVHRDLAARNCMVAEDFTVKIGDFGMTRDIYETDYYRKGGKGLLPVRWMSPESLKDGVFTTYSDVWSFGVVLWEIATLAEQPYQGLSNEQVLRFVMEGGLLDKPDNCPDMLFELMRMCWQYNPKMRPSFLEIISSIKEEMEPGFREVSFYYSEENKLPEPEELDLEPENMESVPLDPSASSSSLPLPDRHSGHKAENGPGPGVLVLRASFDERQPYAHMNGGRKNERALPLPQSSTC

EGFR [3] = target: EGFR (Homo sapiens, UniProt P00533); experiment: EGFR kinase inhibition / substrate phosphorylation (FIG. 6, 7); format: biochemical
Sequence of EGFR (Homo sapiens, UniProt P00533) (P00533 25-1210): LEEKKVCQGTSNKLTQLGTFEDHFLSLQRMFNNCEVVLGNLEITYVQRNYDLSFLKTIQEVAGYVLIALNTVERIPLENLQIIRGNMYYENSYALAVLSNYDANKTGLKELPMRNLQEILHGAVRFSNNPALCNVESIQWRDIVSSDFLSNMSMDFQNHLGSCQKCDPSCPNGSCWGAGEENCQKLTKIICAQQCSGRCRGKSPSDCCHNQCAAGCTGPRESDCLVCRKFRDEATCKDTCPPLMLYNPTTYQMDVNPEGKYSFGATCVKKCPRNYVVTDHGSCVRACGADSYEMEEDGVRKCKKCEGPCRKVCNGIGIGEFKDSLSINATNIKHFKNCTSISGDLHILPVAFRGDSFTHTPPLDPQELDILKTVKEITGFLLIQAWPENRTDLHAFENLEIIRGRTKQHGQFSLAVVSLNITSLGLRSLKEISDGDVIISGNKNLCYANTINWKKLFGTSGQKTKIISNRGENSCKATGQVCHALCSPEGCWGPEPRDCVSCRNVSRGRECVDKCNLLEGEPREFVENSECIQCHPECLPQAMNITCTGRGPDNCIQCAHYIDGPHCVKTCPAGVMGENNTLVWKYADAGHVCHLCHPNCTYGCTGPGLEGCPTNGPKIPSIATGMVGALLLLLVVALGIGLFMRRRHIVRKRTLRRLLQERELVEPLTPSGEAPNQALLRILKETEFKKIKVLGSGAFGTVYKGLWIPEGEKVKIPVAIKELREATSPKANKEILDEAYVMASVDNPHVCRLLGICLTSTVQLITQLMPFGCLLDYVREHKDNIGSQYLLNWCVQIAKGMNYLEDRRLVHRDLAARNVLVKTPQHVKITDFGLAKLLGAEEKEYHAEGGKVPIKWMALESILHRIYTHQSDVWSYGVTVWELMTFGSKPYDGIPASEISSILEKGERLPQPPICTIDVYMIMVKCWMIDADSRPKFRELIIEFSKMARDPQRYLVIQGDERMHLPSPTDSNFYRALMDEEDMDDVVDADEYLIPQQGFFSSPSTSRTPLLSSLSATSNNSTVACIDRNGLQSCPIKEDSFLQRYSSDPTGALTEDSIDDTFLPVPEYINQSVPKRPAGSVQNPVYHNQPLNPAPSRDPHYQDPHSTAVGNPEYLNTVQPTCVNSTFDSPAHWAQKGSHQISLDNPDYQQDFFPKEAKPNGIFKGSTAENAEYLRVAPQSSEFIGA

c-met = c-met (Homo sapiens, UniProt P08581); experiment: c-met kinase inhibition (FIG. 8); format: biochemical; conditions: data from 3 sources
KDR (VEGFR2) = KDR (VEGFR2) (Homo sapiens, UniProt P35968); experiment: KDR (VEGFR2) kinase inhibition; format: biochemical; conditions: data from 3 sources
Source text: The inhibition of these targets appears to be via a mechanism of action that is distinct from approved tyrosine kinase inhibitors (TKIs).

IGF-IR = experiment: Total protein levels over time-course (FIG. 9); format: cell-based; conditions: 2, 4, 8 and 24 hours after treatment, compared to control
EGFR [4] = experiment: Total protein levels over time-course (FIG. 9); format: cell-based; conditions: 2, 4, 8 and 24 hours after treatment, compared to control
HER2 = experiment: Total protein levels over time-course (FIG. 9); format: cell-based; conditions: 2, 4, 8 and 24 hours after treatment, compared to control
Met = experiment: Total protein levels over time-course (FIG. 9); format: cell-based; conditions: 2, 4, 8 and 24 hours after treatment, compared to control
H1975 NSCLC cells = experiment: Soft agar colony formation; format: cell-based; conditions: H1975, Iressa®-resistant NSCLC cells (T790M), 11 days
Procedure: FIG. 10. […] Colony formation was determined and results reported normalized to control values as illustrated in FIG. 10.
Colony formation was determined and results reported normalized to control values as illustrated in FIG. 10.

[5] = system: Tarceva® resistant cell lines (Kras mutants, EGFR mutants, T790M mutation); experiment: Growth of Tarceva resistant cell lines (FIG. 11); format: cell-based; conditions: growth compared to untreated cells
Source text: FIG. 11. […] Growth is shown on the y axis compared to untreated cells. A description of the mutations in the cell lines are identified below in Table 1.

[6] = system: Additional NSCLC cell lines; experiment: Growth of additional NSCLC cell lines (FIG. 12); format: cell-based; conditions: growth compared to untreated cells
Source text: FIG. 12. […] Growth is shown on the y axis compared to untreated cells.

NSCLC xenograft = NSCLC xenograft tumor growth (FIG. 16); format: in vivo; conditions: 3 weeks post-tumor challenge
Source text: FIG. 16. […] Tumor volume is shown (y axis) at […], 2.5 and 3 weeks post tumor challenge (x axis).

breast xenograft = experiment: Breast xenograft tumor growth (FIG. 17); format: in vivo
Source text: FIG. 17. […] Tumor volume is shown (y axis) at various time days post tumor challenge (x axis).

pancreatic xenograft = experiment: Pancreatic xenograft tumor growth (FIG. 18); format: in vivo
Source text: FIG. 18. […] Tumor volume is shown (y axis) at various time days post tumor challenge (x axis).

[7] = system: second pancreatic xenograft; experiment: Second pancreatic xenograft tumor growth (FIG. 19); format: in vivo
Source text: FIG. 19. […] Tumor volume is shown (y axis) at various time days post tumor challenge (x axis).

xenografts of Table 3 = experiment: Efficacy in the xenografts of Table 3; format: in vivo; conditions: NCI-H209, AsPC-1, HPAC, SW850, MDA-MB435, Her-2 over expressing breast, LoVo, C4-I, neuroblastoma, NCI-H1264
Beagle dogs [8] = experiment: Multi-dose oral toxicity, dogs; format: in vivo, dog
Procedure: A dog 28-day multi-dose toxicology assessment was also conducted.

Sprague Dawley rats = experiment: 28-day multi-dose oral toxicity, rats; format: in vivo, rat
Procedure: A rat 28-day multi-dose toxicology assessment was conducted at 15, 150, or 500 mg/kg/day.

Beagle dogs [9] = experiment: Multi-dose toxicity (dose escalation), dogs; format: in vivo
[10] = Phase 1b and 2a clinical data; format: in vivo
Source text: It provides a competitive advantage over previously described compounds in that the present inventors have identified a novel proposed mechanism of action (MOA), which has been market validated (EGFR & cMet) and clinically validated (IGFR). […] Dose selection has also been determined.

[11] = system: New Zealand white rabbits; conditions: rabbit, in vivo, po, 14 days
in vivo [12] = conditions: CR: 1CD BR, rat, po
in vivo [13] = conditions: New Zealand white, rabbit, po
IGF1R [14] = target: T1, IGF1R; experiment: IGF-1R tyrosine kinase assay with poly Glu4:Tyr1 (PGT) substrate, Lineweaver-Burke analysis; format: biochemical; parameters: made in house; host or cells: CHO-IGFR cells
Procedure: FIG. 1. […] Tyrosine kinase substrate Glu4: Tyr1 was bound to 96 well plates. […] Phosphorylation of substrate was determined by anti-phosphotyrosine ELISA**.
A Lineweaver-Burke analysis was used to calculate Km and Vmax for this reaction (FIG. 1).
Soluble IGF-1R, partially purified from CHO-IGFR cells were incubated with 10 nM IGF-1 in Kinase Buffer (50 mM, pH 7.4, 150 mM NaCl, 0.1% Triton X-100, 0.1% gelatin, 5 mM MnCl2, 8 mM MgCl2, and 1 mM PMSF) for 1 hr at room temperature (RT). […] Labeled ^32P-ATP (20 μM) was added in the presence of varying concentrations of the tyrosine kinase substrate poly Glu4:Tyr1 (PGT) (0.005 to 4 mg/ml). The reaction was stopped after 30 min at 22° C. by blotting 40 μl of the reaction mixture onto Whatman 3 MM papers. Filter papers were air dried and then subjected to the following washing protocol in 10% TCA with 10 mM Na4P2O7: 15 min at 4° C., 15 min at 20° C., 5 min boiling, 5 min boiling, followed by a short rinse with acetone. The filter papers were then allowed to air dry completely. ^32P incorporation into the substrate was determined by liquid scintillation counting.
Target sequence in this assay (P08069 741-1367 limits assumed): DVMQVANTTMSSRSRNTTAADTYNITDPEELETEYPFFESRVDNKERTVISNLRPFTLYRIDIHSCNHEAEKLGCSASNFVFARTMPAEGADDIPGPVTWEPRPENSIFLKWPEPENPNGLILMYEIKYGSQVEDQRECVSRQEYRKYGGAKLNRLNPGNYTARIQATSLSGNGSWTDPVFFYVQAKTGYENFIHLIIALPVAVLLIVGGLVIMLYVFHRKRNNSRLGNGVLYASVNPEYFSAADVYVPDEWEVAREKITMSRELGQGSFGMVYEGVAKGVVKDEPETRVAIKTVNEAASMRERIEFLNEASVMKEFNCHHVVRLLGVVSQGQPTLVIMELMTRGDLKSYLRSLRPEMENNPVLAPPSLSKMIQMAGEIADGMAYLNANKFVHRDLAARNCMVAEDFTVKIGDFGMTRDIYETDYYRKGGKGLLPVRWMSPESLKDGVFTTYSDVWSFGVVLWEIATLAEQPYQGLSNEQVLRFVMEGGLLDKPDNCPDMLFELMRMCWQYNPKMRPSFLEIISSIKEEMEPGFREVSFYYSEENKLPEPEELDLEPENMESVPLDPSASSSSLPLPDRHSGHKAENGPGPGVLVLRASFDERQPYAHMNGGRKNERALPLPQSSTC
Target sequence in this assay (P08069 31-736 partner limits assumed): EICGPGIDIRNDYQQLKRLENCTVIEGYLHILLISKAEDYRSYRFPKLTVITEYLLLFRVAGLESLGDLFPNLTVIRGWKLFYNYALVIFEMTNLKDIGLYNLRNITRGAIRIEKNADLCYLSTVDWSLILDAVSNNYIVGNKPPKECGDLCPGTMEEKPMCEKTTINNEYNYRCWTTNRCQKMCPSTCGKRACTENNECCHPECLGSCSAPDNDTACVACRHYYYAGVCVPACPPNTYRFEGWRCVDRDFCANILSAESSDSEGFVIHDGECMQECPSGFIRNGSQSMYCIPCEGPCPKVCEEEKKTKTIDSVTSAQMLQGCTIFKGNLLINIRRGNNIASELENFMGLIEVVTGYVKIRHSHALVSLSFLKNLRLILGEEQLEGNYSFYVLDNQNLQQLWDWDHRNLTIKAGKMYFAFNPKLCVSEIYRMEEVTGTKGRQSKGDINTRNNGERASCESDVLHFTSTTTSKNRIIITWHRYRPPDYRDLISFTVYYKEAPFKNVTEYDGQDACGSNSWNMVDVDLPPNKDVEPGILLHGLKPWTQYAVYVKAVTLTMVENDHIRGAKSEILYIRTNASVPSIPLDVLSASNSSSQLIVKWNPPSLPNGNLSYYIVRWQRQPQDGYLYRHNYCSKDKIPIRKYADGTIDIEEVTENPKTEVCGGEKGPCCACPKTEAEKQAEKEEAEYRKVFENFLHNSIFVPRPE
Target sequence in this assay (P05019 49-118 partner limits assumed): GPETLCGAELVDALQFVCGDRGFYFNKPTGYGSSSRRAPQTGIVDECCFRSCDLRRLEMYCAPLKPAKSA

[15] = dog 28-day multi-dose toxicology assessment

CC(Cc1ccc(O)c(O)c1)C(C)Cc1ccc(O)c(O)c1 (centres unmarked) [NDGA, nordihydroguaiaretic acid]
Amount of ATP bound to IGF-1R (IGF1R [1]; 30 μM NDGA): unchanged | Interference with binding of a labeled ATP analog to recombinant IGF-1R (IGF1R [1]; any concentration of NDGA up to 100 μM): did not interfere; also recorded: does not interfere | Inhibition of IGF1R (IGF1R [2]): inhibition | Inhibition of EGFR / substrate phosphorylation (EGFR [3]): inhibits substrate phosphorylation; also recorded: inhibition | Inhibition of cMet (c-met): inhibition | Inhibition of KDR (VEGFR2) (KDR (VEGFR2)): inhibition | Total protein level of IGF-IR (IGF-IR): reduction in total protein levels | Total protein level of EGFR (EGFR [4]): reduction in total protein levels | Total protein level of HER2 (HER2): reduction in total protein levels | Total protein level of Met (Met): reduction in total protein levels | Activity on colony formation in soft agar (H1975 NSCLC cells): active | Sensitivity of growth to NDGA [5]: sensitive | Sensitivity of growth to NDGA [6]: sensitive | Tumor growth (tumor volume) compared to control (NSCLC xenograft): inhibit tumor growth | Tumor growth (tumor volume) compared to control (breast xenograft): inhibited growth | Tumor growth (tumor volume) compared to control (pancreatic xenograft): inhibited growth | Tumor growth (tumor volume) compared to control [7]: inhibited growth | Efficacy in xenografts (xenografts of Table 3): efficacy was shown | Necropsy findings (Beagle dogs [8]; [15]): intestinal mucosal reddening | No observable effect level (NOEL) (Beagle dogs [8]; [15]): 60 mg/kg/day | Tolerability of all of the other doses (Beagle dogs [8]; dog, in vivo): well-tolerated in this | Findings at 150 and 500 mg/kg/day (Sprague Dawley rats; 150 and 500 mg/kg/day, 28 days, listed as TT-100): Stomach and duodenal hypertrophy/alterations; also recorded: adverse events | No-effect dose level (Sprague Dawley rats; oral (gavage), once daily for 28 days): 15 mg/kg/day | Tolerability in the repeated dose phase (Beagle dogs [9]; dog, in vivo, po, 300 mg/kg/day): fairly well tolerated, | Clinical findings in the escalation phase (Beagle dogs [9]; dogs, single oral (capsule) doses of 600 and 1200 mg/kg): Significant emesis, | Safety and tolerability [10]: safe and well tolerated | No-effect level [11]: dose of 1000 mg/kg | LD50 at 14 days (in vivo [12]): > 5000 mg/kg | LD50 at 14 days (in vivo [13]; female): 1650 mg/kg | LD50 at 14 days (in vivo [13]; male): 2500 mg/kg | Mechanism of action of IGF-1R inhibition (IGF1R [14]; varying PGT substrate, 20 μg/ml NDGA): substrate competition | Vmax (IGF1R [14]; with NDGA (+TT100), 10 nM IGF-1, 20 μM ATP): 2.0 pmol/min
